Experimental data reported in ChEMBL document CHEMBL1131044, “Discovery and preclinical pharmacology of a novel, potent, nonsteroidal estrogen receptor agonist/antagonist, CP-336156, a diaryltetrahydronaphthalene” (J Med Chem, 1998).

Biological target: Estrogen receptor (Rattus norvegicus, UniProt P06211+Q62986)
Test: not given
Conditions: not given

IC50 [nM]	Structure (SMILES)
9.75	Oc1ccc2c(c1)CC[C@H](c1ccccc1)[C@H]2c1ccc(OCCN2CCCC2)cc1
132	COc1ccc2c(c1)CCC(c1ccccc1)C2c1ccc(OCCN2CCCC2)cc1 (centres undefined)
11.1	Oc1ccc2c(c1)CC[C@H](c1ccccc1)[C@@H]2c1ccc(OCCN2CCCC2)cc1 (stereo in doubt; 9) [LASOFOXIFENE]

Second part, the molecule before the results:

Structure (SMILES)	IC50 [nM]
Oc1ccc2c(c1)CC[C@@H](c1ccccc1)[C@H]2c1ccc(OCCN2CCCC2)cc1	270
Oc1ccc2c(c1)CCC(c1ccccc1)=C2c1ccc(OCCN2CCCC2)cc1	47.1
Oc1ccc2c(c1)OC(c1ccc(OCCN3CCCC3)cc1)C(c1ccccc1)=C2 (centres undefined)	11.1
Oc1ccc2c(c1)CC[C@H](c1ccccc1)[C@@H]2c1ccc(OCCN2CCCC2)cc1 (stereo in doubt; 14) [LASOFOXIFENE]	11.3
COc1ccc2c(c1)CCC(c1ccccc1)=C2c1ccc(OCCN2CCCC2)cc1 [NAFOXIDINE]	40.9

Species on record: Rattus norvegicus
Test: not given
Conditions: not given

Structure (SMILES)	ED50 [µg/day/kg]
Oc1ccc2c(c1)CC[C@@H](c1ccccc1)[C@H]2c1ccc(OCCN2CCCC2)cc1	>500
Oc1ccc2c(c1)OC(c1ccc(OCCN3CCCC3)cc1)C(c1ccccc1)=C2 (centres undefined)	175
Oc1ccc2c(c1)CC[C@H](c1ccccc1)[C@@H]2c1ccc(OCCN2CCCC2)cc1 (stereo in doubt; 14) [LASOFOXIFENE]	10
O=C(c1ccc(OCCN2CCCCC2)cc1)c1c(-c2ccc(O)cc2)sc2cc(O)ccc12 [RALOXIFENE]	500

Species on record: Rattus norvegicus
Test: not given
Conditions: not given
Remark: another data set of the same source

Structure (SMILES)	ED50 [µg/day/kg]
Oc1ccc2c(c1)CC[C@@H](c1ccccc1)[C@H]2c1ccc(OCCN2CCCC2)cc1	>500
Oc1ccc2c(c1)OC(c1ccc(OCCN3CCCC3)cc1)C(c1ccccc1)=C2 (centres undefined)	175
Oc1ccc2c(c1)CC[C@H](c1ccccc1)[C@@H]2c1ccc(OCCN2CCCC2)cc1 (stereo in doubt; 14) [LASOFOXIFENE]	<1
O=C(c1ccc(OCCN2CCCCC2)cc1)c1c(-c2ccc(O)cc2)sc2cc(O)ccc12 [RALOXIFENE]	500

System: not listed separately
Test: Oral bioavailability in cynomolgus monkey.
Format: ADME, organism-based, Macaca fascicularis
Conditions: in vivo

Structure (SMILES)	bioavailability [%]
Oc1ccc2c(c1)CC[C@H](c1ccccc1)[C@@H]2c1ccc(OCCN2CCCC2)cc1 (stereo in doubt; 14) [LASOFOXIFENE]	45

Same assay, conditions: in vivo, read-out: Bioavailabiility

Structure (SMILES)	bioavailability [%]
O=C(c1ccc(OCCN2CCCCC2)cc1)c1c(-c2ccc(O)cc2)sc2cc(O)ccc12 [RALOXIFENE]	5

System: not listed separately
Test: Oral bioavailability in rat
Format: ADME, organism-based
Conditions: in vivo

bioavailability [%]	F [%]	Structure (SMILES)
16		Oc1ccc2c(c1)CC[C@H](c1ccccc1)[C@H]2c1ccc(OCCN2CCCC2)cc1
60		Oc1ccc2c(c1)CC[C@H](c1ccccc1)[C@@H]2c1ccc(OCCN2CCCC2)cc1 (stereo in doubt; 9) [LASOFOXIFENE]

Further lines, the molecule ahead of its results:

Structure (SMILES)	bioavailability [%]	F [%]
Oc1ccc2c(c1)CC[C@@H](c1ccccc1)[C@H]2c1ccc(OCCN2CCCC2)cc1	29	
Oc1ccc2c(c1)OC(c1ccc(OCCN3CCCC3)cc1)C(c1ccccc1)=C2 (centres undefined)	27	
Oc1ccc2c(c1)CC[C@H](c1ccccc1)[C@@H]2c1ccc(OCCN2CCCC2)cc1 (stereo in doubt; 14) [LASOFOXIFENE]		62

System: not listed separately
Test: in vivo
Conditions: rat, po

Structure (SMILES)	bioavailability [%]
O=C(c1ccc(OCCN2CCCCC2)cc1)c1c(-c2ccc(O)cc2)sc2cc(O)ccc12 [RALOXIFENE]	10
